We go through five compounds from patent US8044054B2, “Stereoisomerically enriched 3-aminocarbonyl bicycloheptene pyrimidinediamine compounds and their uses” (Rigel Pharmaceuticals, Inc., priority 2004, dated 2011).

In data set [1] the test system is SK-OV-3 (ovarian adenocarcinoma). Put plainly: In vitro antiproliferation assay, SK-OV-3. In kind it is cell-based. The conditions noted are these: Homo sapiens, SKOV3.
Data set [2] concerns variety of different tumor cell lines. Put plainly: In vitro antiproliferation assays, summary over the tumor cell lines tested. In kind it is cell-based. Conditions: for IC50's against tumor cell lines, tested as isolated stereoisomers: general range over the cell lines. The text has this: The cis racemate of structural formula (IIa) can be referred to as the 2-exo-3-exo racemate, and includes the (1R,2R,3S,4S) and (1S,2S,3R,4R) diastereomers of structural formulae (Ia) and (Ib), respectively. The cis racemate of structural formula (IIb) can be referred to as the 2-endo-3-endo racemate, and includes the (1R,2S,3R,4S) and (1S,2R,3S,4R) diastereomers of structural formulae (Ic) and (Id), respectively. […] Moreover, it has been discovered that the (1R,2R,3S,4S) diastereomer of racemate r1 is largely responsible for the potency of the racemate r1.

Data set [3] relates to THP-1 (monocyte acute monocytic leukemia). Briefly: In vitro antiproliferation assay, THP-1. In kind it is cell-based.
Data set [4] has as its system DU145 (prostate carcinoma). Put plainly: In vitro antiproliferation assay, DU145. In kind it is cell-based.
The test system of data set [5] is K562 (bone marrow chronic myelogenous leukemia). Briefly: In vitro antiproliferation assay, K562. In kind it is cell-based.
In data set [6] the test system is SU86.86 (pancreatic carcinoma). Put plainly: In vitro antiproliferation assay, SU86.86. Conditions: Homo sapiens, SU.86.86. In kind it is cell-based.
For data set [7], the system named is L1210 (mouse lymphocytic leukemia). Put plainly: In vitro antiproliferation assay, L1210. It is filed as cell-based.
Data set [8] relates to SW620 (colorectal adenocarcinoma). Put plainly: In vitro antiproliferation assay, SW620. In kind it is cell-based.
The next data set has as its system H7299. Briefly: In vitro antiproliferation assay, H7299. It is filed as cell-based.
Data set [9] can be described thus: Pharmacokinetics in monkeys, plasma concentration over time. It is filed as in vivo. The procedure: Compound 60a was administered to monkeys intravenously (1 mg/kg in saline) and orally (5 mg/kg in saline) and the plasma concentrations monitored over time.
In data set [10] the test system is ASPC-1 (pancreatic adenocarcinoma). Briefly: In vitro antiproliferation assay, ASPC-1. It is filed as cell-based. The conditions noted are these: ASPC1.
The next data set relates to A549 (lung carcinoma). Briefly: In vitro antiproliferation assay, A549. In kind it is cell-based.
Data set [11] deals with PC3 (prostate adenocarcinoma). Put plainly: In vitro antiproliferation assay, PC3. In kind it is cell-based.
A further data set has as its system U2OS (bone osteosarcoma). Put plainly: In vitro antiproliferation assay, U2OS. It is filed as cell-based. Conditions: U20S.
Data set [12] concerns H1299 (non-small cell lung carcinoma). Briefly: In vitro antiproliferation assay, H1299. It is filed as cell-based.
For another data set, the system named is A549 tumors. Conditions: A549, treatment model, 5 days on/2 days off, 10 mg/kg qd, p>0.05. On the procedure:
(§1) Compound 60a.2HCl, was tested for its ability to shrink A549 and Colo205 tumors in a standard xenograft therapeutic model in SCID mice, and Colo205 and MiaPaCa tumors in a standard xenograph regression model in SCID mice. When palpable tumors appeared and were of a preselected volume (approx. 100 mm3 for treatment model; >300 mm3 for regression model), the mice were administered test compounds in the amounts and according to the dosing regimens specified in TABLE 3 (treatment protocol) and TABLE 4 (regression protocol), below.

The test system of a further data set is Colo205 tumors. On the procedure: as §1
For the next data set, the system named is MiaPaCa tumors. The conditions noted are these: regression model, 10 mg/kg/day daily (3 cycles), oral or i.p. On the procedure:
as §1

The test system of data set [13] is H460 (large cell lung carcinoma). Conditions: read-out: In Vitro IC50. On the procedure: Compounds 60r1, 60r2, 60r1.2HCl, 60a, 60b and 60a.HCl were tested against a variety of different types of tumor cells for their ability to inhibit proliferation using standard in vitro antiproliferation assays.
Another data set concerns the target T1, Aurora kinase-B (Homo sapiens, UniProt Q96GD4).
T1 construct: endogenous in cells; host or cells: A549 cells
Briefly: Functional cellular assay of Aurora kinase-B, phosphorylation of histone H3 in A549 cells. In kind it is cell-based. On the procedure: Compounds 60a and 60b were tested for their ability to inhibit Aurora kinase-B in a functional cellular assay involving phosphorylation of its substrate, histone H3. For the assay, A549 cells were seeded into the wells of a microtiter tray (5000 cells/well in 100 μl F12K media) late in the afternoon on Day 1. The cells were grown overnight (37° C., 5% CO2). On Day 2, 50 μl nocodazole (1 μM in media) was added to each well, giving a final concentration of 333 nM. Cells were grown for an additional 18 hrs under the same conditions.
On Day 3, 50 μl aliguots of varying concentrations of test compound were added to the wells. […] The cells were then stained with a secondary antibody labeled with a fluorescent dye (secondary antibody donkey anti-mouse AlexFluor 488 (Invitrogen Molecular Probes; 1:2000) and DAPI (1:15,000 of 1 mg/ml stock) for 1 hr at room temperature, washed three times with DPBS (200 μl/well) and stored under DPBS (100 μl/well) at 4° C. until ready for analysis.
A Zeiss Axiovert S100 inverted fluorescent microscope with a Plan-NEOFLUAR 10× objective, a Hamamatsu Lightningcure 200 Mercury-Xenon light source and an Omega Optical XF57 quad filter was used for all data collection. […] Images were captured and analyzed in 12-bit format using segmentation and morphological routines contained in the Image Pro software package. […]

The structures appear in SMILES notation. pIC50: −log10 of the molar value. Counter-ions that a name gives are not always drawn. Like-named read-outs stand apart in the source and are kept apart here.

T1 sequence (Q96GD4 whole entry): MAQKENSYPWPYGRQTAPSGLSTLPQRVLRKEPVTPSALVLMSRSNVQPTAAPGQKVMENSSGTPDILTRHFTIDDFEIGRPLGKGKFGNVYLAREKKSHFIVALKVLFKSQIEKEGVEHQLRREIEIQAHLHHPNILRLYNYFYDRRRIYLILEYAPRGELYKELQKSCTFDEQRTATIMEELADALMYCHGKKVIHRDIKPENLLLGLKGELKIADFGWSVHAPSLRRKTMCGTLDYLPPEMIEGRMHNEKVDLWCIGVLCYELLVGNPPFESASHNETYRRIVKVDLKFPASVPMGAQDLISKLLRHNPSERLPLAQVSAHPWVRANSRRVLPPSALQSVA

With `Cc1cc(Nc2ncc(F)c(N[C@H]3[C@@H](C(N)=O)[C@@H]4C=C[C@H]3C4)n2)ccc1N1CCN(C)CC1` [Compound 60a, (1R,2R,3S,4S)—N-4-(3-aminocarbonylbicyclo[2.2.1]hept-5-ene-2-yl)-5-fluoro-N2-[3-methyl-4-(4-methylpiperazin-1-yl)phenyl]-2,4-pyrimidinediamine], the pIC50 in [1] is 7.70 to 8.00; in data set [3] (Homo sapiens), 6.00 to 7.70; in data set [4] (Homo sapiens, DU-145) it was 7.70 to 8.00; in data set [5] (Homo sapiens), 6.00 to 7.70; in data set [6] it was 7.70 to 8.00; in [7] (Mus musculus), 7.70 to 8.00. For the same compound, the pIC50 in data set [8] (Homo sapiens, SW-620) was 7.70 to 8.00; in the data set on H7299 it was 7.70 to 8.00. Moreover, the “IC50's against tumor cell lines, tested as isolated stereoisomers” value in data set [2] was “nanomolar range”. In addition, in data set [2] (in general, same cell lines), the “potency relative to the (1S,2S,3R,4R) enantiomer” value was approximately 1000 fold. Moreover, the “time plasma concentration remained above the IC50 of 7 nM” value in [9] (intravenously, 1 mg/kg in saline) was found to be 11 h. The “time plasma concentration was maintained above the IC50” value in data set [9] (orally, 5 mg/kg in saline) is listed as “over 20 hrs”.

In the case of `Cc1cc(Nc2ncc(F)c(NC3C4C=CC(C4)C3C(N)=O)n2)ccc1N1CCN(C)CC1` (racemic) [Compound 60r1, 2-exo-3-exo racemic N4-(3-aminocarbonylbicyclo[2.2.1]hept-5-ene-2-yl)-5-fluoro-N2-[3-methyl-4-(4-methylpiperazin-1-yl)phenyl]-2,4-pyrimidinediamine], the pIC50 was 6.00 to 7.70 in data set [3]; 7.70 to 8.00 in data set [4]; 6.00 to 7.70 in data set [5]; 7.70 to 8.00 in data set [10]; 7.70 to 8.00 in the data set on A549 (lung carcinoma); 6.00 to 7.70 in [7]. For the same compound, the pIC50 in data set [8] is 6.00 to 7.70; with H7299, 7.70 to 8.00; in [11] it was 7.70 to 8.00; in the data set on U2OS (bone osteosarcoma) it was 7.70 to 8.00.

For the compound `Cc1cc(Nc2ncc(F)c(NC3C4C=CC(C4)C3C(N)=O)n2)ccc1N1CCN(C)CC1` (racemic) [Compound 60r1.2HCl, 2-exo-3-exo racemic N4-(3-aminocarbonylbicyclo[2.2.1.]hept-5-ene-2-yl)-5-fluoro-N2-[3-methyl-4-(4-methylpiperazin-1-yl)phenyl]-2,4-pyrimidinediamine bis hydrogen chloride salt], the pIC50 (in the data set with A549 (lung carcinoma) (listed as 60r1-2HCl); in data set [12]; in the data set with H7299 (listed as 60r1-2HCl)) was 6.00 to 7.70 throughout.

With `Cc1cc(Nc2ncc(F)c(N[C@H]3[C@@H](C(N)=O)[C@@H]4C=C[C@H]3C4)n2)ccc1N1CCN(C)CC1.Cl.Cl` [Compound 60a.2HCl, (1R,2R,3S,4S)—N-4-(3-aminocarbonylbicyclo[2.2.1]hept-5-ene-2-yl)-5-fluoro-N2-[3-methyl-4-(4-methylpiperazin-1-yl)phenyl]-2,4-pyrimidinediamine bis hydrogen chloride salt], the pIC50 in data set [4] is 6.00 to 7.70; in the data set on A549 (lung carcinoma), more than 8.00; in [12], 6.00 to 7.70; in the data set on H7299 it was 6.00 to 7.70; in data set [13], more than 8.00. In the data set with A549 tumors, the “reduction in mean tumor volume” value is approximately 40%. Moreover, the tumor growth rate result is “Significant reductions in tumor growth rate” in the data set with Colo205 tumors (Colo205, regression model, 10 mg/kg/day oral daily (13 days)) and “Significant reductions in tumor growth rate” in the data set on MiaPaCa tumors. Also, the “tumor growth rate compared to vehicle control” value in the data set on Colo205 tumors (Colo205, treatment model, daily and pulsed dosing regimens, all dosage levels tested (2 and 10 mg/kg/day oral)) is “significant (p<0.050) reductions in tumor growth rate”.

As for `Cc1cc(Nc2ncc(F)c(N[C@@H]3[C@H](C(N)=O)[C@H]4C=C[C@@H]3C4)n2)ccc1N1CCN(C)CC1` [Compound 60b, (1S,2S,3R,4R)—N-4-(3-Aminocarbonylbicyclo[2.2.1]hept-5-en-2-yl)-5-fluoro-N2-[3-methyl-(4-methylpiperazin-1-yl)phenyl]-2,4-pyrimidinediamine], the “IC50's against tumor cell lines, tested as isolated stereoisomers” value in data set [2] was “micromolar range”. The pIC50 (in data set [3]; in data set [4]; in the data set on U2OS (bone osteosarcoma)) was 6.00 to 7.70 in each case. The “IC50 of 60b relative to its enantiomer 60a” value at Aurora kinase-B is listed as “approx. 350 times greater”.
